Test results as given in PubChem BioAssay (NCI).
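Step 1: Grow cells in 96-well plates. Step 2: Expose to compound for 48 hours at 5 concentrations. Step 3: Interpolate endpoints linearly; if unreached, use highest concentration. Abbreviation: GI50, concentration required for 50% inhibition of growth. The concentration for full growth arrest is given as TGI.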

Columns and labels:
Experiment in all cases: NCI-60 cell line screen, 48 h
BT-549 breast = system: BT-549 breast
COLO 205 colon = system: COLO 205 colon
SK-MEL-28 melanoma = system: SK-MEL-28 melanoma
M14 melanoma = system: M14 melanoma
UO-31 renal = system: UO-31 renal
SK-OV-3 ovarian = system: SK-OV-3 ovarian
DU-145 prostate = system: DU-145 prostate
LOX IMVI melanoma = system: LOX IMVI melanoma
NCI-H226 lung = system: NCI-H226 lung
MOLT-4 leukemia = system: MOLT-4 leukemia

Compound | TGI (BT-549 breast) [µM] | TGI (COLO 205 colon) [µM] | TGI (SK-MEL-28 melanoma) [µM] | TGI (M14 melanoma) [µM] | TGI (UO-31 renal) [µM] | TGI (SK-OV-3 ovarian) [µM] | TGI (DU-145 prostate) [µM] | TGI (LOX IMVI melanoma) [µM] | GI50 (BT-549 breast) [µM] | GI50 (NCI-H226 lung) [µM] | TGI (NCI-H226 lung) [µM] | GI50 (COLO 205 colon) [µM] | GI50 (SK-MEL-28 melanoma) [µM] | GI50 (M14 melanoma) [µM] | GI50 (UO-31 renal) [µM] | GI50 (DU-145 prostate) [µM] | GI50 (MOLT-4 leukemia) [µM] | TGI (MOLT-4 leukemia) [µM] | GI50 (LOX IMVI melanoma) [µM] | GI50 (SK-OV-3 ovarian) [µM]
Nc1nc(-c2cccs2)cs1 | > 100 | > 100 | > 100 | > 100 | > 100 | > 100 | > 100 | > 100 | – | – | – | – | – | – | – | – | – | – | – | –
COc1ccc2c(c1)C(=O)c1c-2c(NCCN(C)C)nc2ccccc12 | 19.3 | 19.3 | 26.9 | 29.2 | 22 | – | 17.5 | 11.6 | 5.99 | 16.2 | 32.5 | 4.51 | 13.9 | 15.8 | 9.98 | 2.95 | 0.291 | 1.15 | 2.01 | –
C#Cc1cc(CN(CC(=O)OC(C)(C)C)CC(=O)OC(C)(C)C)nc(CN(CC(=O)OC(C)(C)C)CC(=O)OC(C)(C)C)c1 | – | 24.9 | 93.8 | 28.6 | 26 | 51 | – | 6.03 | – | – | 7.34 | – | – | – | – | – | – | 6.33 | – | –
Cn1nc2ccccc2cc1=O | – | > 100 | > 100 | > 100 | > 100 | > 100 | – | > 100 | – | – | > 100 | – | – | – | – | – | – | – | – | –
CC(CN)[C@@H]1CC[C@]2(CO)CC[C@]3(C)[C@H](CC[C@@H]4[C@@]5(C)CCC(N)C(C)(C)[C@@H]5CC[C@]43C)[C@@H]12 (stereo partly drawn) | – | 3.68 | 3.62 | 3.76 | 3.04 | 3.29 | 3.3 | 3.33 | – | 1.95 | 4.04 | 1.91 | 1.91 | 1.9 | 1.55 | 1.8 | – | – | 1.66 | 1.86
Nc1nc(=Nc2ccccc2)ss1 | – | > 100 | > 100 | > 100 | > 100 | > 100 | – | > 100 | – | – | > 100 | – | – | – | – | – | – | > 100 | – | –
c1ccc2c3c(ccc2c1)-c1c(ccc2c(NCCCCN4CCCCC4)cccc12)C3 | – | 6.77 | 4.06 | 3.35 | 7.66 | 35.3 | 3.33 | – | – | – | – | 2.33 | 1.88 | 1.94 | 2.61 | 1.77 | 2.09 | > 100 | – | 10
CCOC(=O)NC1CC2CCC1(OC)C=C2C (stereo not drawn) | – | > 100 | > 100 | > 100 | > 100 | > 100 | – | > 100 | – | – | > 100 | – | – | – | – | – | – | > 100 | – | –
CCCCCCCCCCCCC(CCCCCCCCCCCC)OP(=O)(O)O | – | > 100 | > 100 | > 100 | > 100 | > 100 | – | > 100 | – | – | > 100 | – | – | – | – | – | – | > 100 | – | –
CCCCCCCCCCCCCCCCCC[N+](C)(C)Cc1ccc(C[N+](C)(C)CCCCCCCCCCCCCCCCCC)cc1 | – | > 100 | 35 | 49 | 56.3 | 69.6 | – | 32.3 | – | – | 41.5 | – | – | – | – | – | – | 51.8 | – | –
